Test results from ChEMBL document CHEMBL1131790, “Structure-based design and synthesis of novel thrombin inhibitors based on phosphinic peptide mimetics” (Bioorg Med Chem Lett, 1999).
pIC50: −log10 of the molar value.

Target: Prothrombin (Homo sapiens, UniProt P00734)
Test: In vitro inhibitory activity against thrombin

Row | pIC50 | SMILES
1 | 4.15 | COc1ccc(C[C@@H](NC(=O)[C@@H](Cc2ccc3ccccc3c2)NC(=O)OCc2ccccc2)P(=O)(O)c2ccccc2)cc1
2 | 5.12 | CC(=O)N[C@H](Cc1c[nH]c2ccccc12)C(=O)N[C@H](Cc1ccc(C(=N)N)cc1)P(=O)(O)c1ccccc1
3 | 6.22 | N=C(N)c1ccc(C[C@@H](NC(=O)[C@H](N)Cc2ccc3ccccc3c2)P(=O)(O)c2ccccc2)cc1
4 | 5.44 | N=C(N)c1ccc(C[C@@H](NC(=O)[C@@H](Cc2ccc3ccccc3c2)NC(=O)OCc2ccccc2)P(=O)(O)c2ccccc2)cc1
